Reference: article PMC10449633 (Nature Chemical Biology, 2023)
Numbered stars: 1 amine (or outer) side, 2 acyl side, 3 side chain; on linkers, the order of the positions; unused ones are H or OH. Square brackets hold non-standard residues; d marks the D form. Peptide text beside a SMILES is read from it. ξ: configuration not given here. X1 = CN(C(Cc1cn(Cc2ccc(Br)cc2)c2ccccc12)C(=O)[*:2])[*:1]; ξAla(CF3) = NC(CC(F)(F)F)C(=O)O; X2 = N#CCCC(O[*:1])C(=O)[*:2]; NMeL = CN[CH](CC(C)C)C(=O)O; NMeA = CN[CH](C)C(=O)O

System: SARS-CoV-2 spike protein
Format: cell-based

## CC(C)CC1NC(=O)C(Cc2cn(Cc3ccc(Br)cc3)c3ccccc23)N(C)C(=O)C(CC(F)(F)F)NC(=O)C(CC(C)C)N(C)C(=O)C(CC(F)(F)F)NC(=O)C(CCC#N)OC(=O)C(C)N(C)C1=O (stereo not shown) [KZR-8445] (cyclo([X1]L[NMeA][X2][ξAla(CF3)][NMeL][ξAla(CF3)]); configuration not given here)
  biogenesis of the Spike protein: inhibits
